“And” between values parts separate entries of the source, which are not always exact repeats. Equal entries are not always repeated. Structures can show the parent of a compound that is named as a salt. Where two headings read alike, the source gives them in different places.
Legend:
[1] = system: A549 (lung adenocarcinoma); details: 10 μM, 72 hours
Protocol: (§1) These cells were seeded at an amount of 2×10^6 cells, and then added with the culture medium for cultivating the cells to a volume of 10 mL, followed by cultivation for 2 to 3 days. After counting the cell number, these cells were respectively plated in a 96-well plate, in which each well has a fixed cell number of 3000 and a volume of 100 μL.
(§2) After removing the culture medium in the 96-well plate, each well was added with 100 μL of 10 μM commercial drug and then placed for 72 hours. Thereafter, each well was further added with 100 μL of a diluted WST-1 solution (the dilution ratio for the culture medium: WST-1 stock solution (wt/wt) is 9:1).

[2] = system: TSGH (urinary bladder carcinoma); details: 10 μM, 72 hours
Protocol: as §1, §2

[3] = system: PC-3 (prostate adenocarcinoma); details: 10 μM, 72 hours
Protocol: as §1, §2
(§3) Each cancer cell inhibitory experiment was repeated for 4 times, followed by calculation of the mean values thereof, which were shown in the following tables.

[4] = system: MCF-7 (mammary gland, adenocarcinoma); details: 10 μM, 72 hours
Protocol: as §1, §2

[5] = system: AGS (gastric adenocarcinoma); details: 10 μM, 72 hours
Protocol: as §1, §2, §3

[6] = system: MKN-45 (gastric adenocarcinoma); details: 10 μM, 72 hours
Protocol: as §1, §2, §3

[7] = system: LoVo (colorectal adenocarcinoma); details: 10 μM, 72 hours
Protocol: as §1, §2, §3

BxPC-3 = details: 10 μM, 72 hours
Protocol: as §1, §2, §3

U2OS = details: 10 μM, 72 hours
Protocol: as §1, §2

[8] = system: A375 (amelanotic melanoma); details: 10 μM, 72 hours
Protocol: as §1, §2

HEK 293 (kidney) = details: 10 μM, 72 hours
Protocol: as §1, §2
(§4) Each cell inhibitory experiment was repeated for 4 times, followed by calculation of the mean values thereof, which were shown in the following tables.

[9] = system: BEAS-2B (lung epithelial); details: 10 μM, 72 hours
Protocol: as §1, §2, §4

Lung cancer = details: summary over cell lines, 10 μM, 72 hours
Protocol: as §1, §2

Bladder cancer = details: summary over cell lines, 10 μM, 72 hours
Protocol: as §1, §2

Breast cancer = details: summary over cell lines, 10 μM, 72 hours
Protocol: as §1, §2

Gastric cancer = details: summary over cell lines, 10 μM, 72 hours
Protocol: as §1, §2

Liver cancer = details: summary over cell lines, 10 μM, 72 hours
Protocol: as §1, §2

[10] = system: liver cancer cells (HepG2); details: for Increased tumor volume, Mean / Volume, Mean / Increased tumor volume / L (longest diameter of the tumor) / Volume / W (shortest diameter of the tumor) / Weight: intraperitoneal daily; for Increased tumor volume, Mean / Volume, Mean: mean of 3 mice; for Increased tumor volume / L (longest diameter of the tumor) / Volume / W (shortest diameter of the tumor) / Weight: mice A, B, C
Protocol: This experiment was performed with female BALB/cAnN.Cg-Foxn1nu/CrlNarl mice with a weight of around 21±1 gas samples. After subcutaneous injection of liver cancer cells (HepG2), the mice were randomly divided into three groups based on the test drug, i.e., normal control group, low dosage group (100 mg/kg/day) and high dosage group (200 mg/kg/day). After the tumor was grown to be over 100 mm^3, the mice were treated with the drug via intraperitoneal injection daily. The tumor size was measured two times per week. The formula for determining the tumor size was as follows: (L×W^2)/2, in which L represents the longest diameter of the tumor and W represents the shortest diameter of the tumor.

various cancer cells = details: Table 18, FIG. 1
Protocol: as §1, §2

[11] = BEAS-2B normal lung epithelial cells, single experiment
[12] = High dosage (200 mg/kg/day), Fifth measurement
[13] = High dosage (200 mg/kg/day), First measurement
[14] = High dosage (200 mg/kg/day), First measurement, hydrochloride
[15] = High dosage (200 mg/kg/day), Fourth measurement
[16] = High dosage (200 mg/kg/day), Second measurement
[17] = High dosage (200 mg/kg/day), Second measurement, hydrochloride
[18] = High dosage (200 mg/kg/day), Third measurement
[19] = Low dosage (100 mg/kg/day), Fifth measurement
[20] = Low dosage (100 mg/kg/day), Fifth measurement, hydrochloride
[21] = Low dosage (100 mg/kg/day), First measurement
[22] = Low dosage (100 mg/kg/day), First measurement, hydrochloride
[23] = Low dosage (100 mg/kg/day), Fourth measurement
[24] = Low dosage (100 mg/kg/day), Fourth measurement, hydrochloride
[25] = Low dosage (100 mg/kg/day), Second measurement
[26] = Low dosage (100 mg/kg/day), Second measurement, hydrochloride
[27] = Low dosage (100 mg/kg/day), Third measurement
[28] = Low dosage (100 mg/kg/day), Third measurement, hydrochloride

CNCC[C@H](Oc1cccc2ccccc12)c1cccs1 [duloxetine HCl, Duloxetine hydrochloride]
Mean survival rate (%) ([1]; mean of 4 experiments): 37.5%
survival rate 0524-10 min ([1]; single experiment): 32.8%
survival rate 0526-10 min ([1]; single experiment): 53.7%
survival rate 0529-10 min ([1]; single experiment): 33.2%
survival rate 0531-10 min ([1]; single experiment): 30.1%
Mean survival rate (%) ([2]; mean of 4 experiments): 49.2%
survival rate 0510-10 min ([2]; single experiment): 36.1%
survival rate 0512-10 min ([2]; single experiment): 59.0%
survival rate 0515-10 min ([2]; single experiment): 61.2%
survival rate 0517-10 min ([2]; single experiment): 40.5%
Mean survival rate (%) ([3]; mean of 4 experiments): 45.6%
survival rate PC-3-0524-10 min ([3]; single experiment): 45.0%
survival rate PC-3-0526-10 min ([3]; single experiment): 70.9%
survival rate PC-3-0529-10 min ([3]; single experiment): 41.4%
survival rate PC-3-0531-10 min ([3]; single experiment): 25.1%
Mean survival rate (%) ([4]; mean of 4 experiments): 31.2%
survival rate 0612-10 min ([4]; single experiment): 29.0%
survival rate 0614-10 min ([4]; single experiment): 37.3%
survival rate 0616-10 min ([4]; single experiment): 30.0%
survival rate 0619-10 min ([4]; single experiment): 28.5%
Mean survival rate (%) ([5]; mean of 4 experiments): 23.5%
survival rate 0510-10 min ([5]; single experiment): 25.0%
survival rate 0512-10 min ([5]; single experiment): 15.9%
survival rate 0515-10 min ([5]; single experiment): 37.3%
survival rate 0517-10 min ([5]; single experiment): 15.8%
Mean (survival rate) ([6]; mean of 4 experiments): 59.7%
survival rate 0510-10 min ([6]; single experiment): 59.5%
survival rate 0512-10 min ([6]; single experiment): 75.3%
survival rate 0515-10 min ([6]; single experiment): 46.0%
survival rate 0517-10 min ([6]; single experiment): 57.9%
Mean survival rate (%) ([7]; mean of 4 experiments): 47.3%
survival rate 0616-10 min ([7]; single experiment): 44.8%
survival rate 0619-10 min ([7]; single experiment): 63.4%
survival rate 0621-10 min ([7]; single experiment): 49.9%
survival rate 0623-10 min ([7]; single experiment): 31.0%
Mean survival rate (%) (BxPC-3; mean of 4 experiments): 54.0%
survival rate 3-4-30 min (BxPC-3; single experiment): 72.4%
survival rate 3-7-3-30 min (BxPC-3; single experiment): 62.1%
survival rate 3-7-4-30 min (BxPC-3; single experiment): 58.8%
survival rate 3-7-7-30 min (BxPC-3; single experiment): 22.7%
Survival rate (%) (U2OS; Osteosarcoma (U2OS), summary table): 35.09%
Mean survival rate (%) (U2OS; U2OS, mean of 4 experiments): 35.1%
survival rate 6-26-10 min (U2OS; U2OS, single experiment): 26.6%
survival rate 6-28-10 min (U2OS; U2OS, single experiment): 21.5%
survival rate 6-30-10 min (U2OS; U2OS, single experiment): 56.6%
survival rate 7-3-10 min (U2OS; U2OS, single experiment): 35.6%
Mean survival rate (%) ([8]; mean of 4 experiments): 31.5%
survival rate 0602-30 min ([8]; single experiment): 25.7%
survival rate 0605-10 min ([8]; single experiment): 16.2%
survival rate 0607-10 min ([8]; single experiment): 17.1%
survival rate 0609-10 min ([8]; single experiment): 67.0%
Mean survival rate (%) (HEK 293 (kidney); HEK 293 normal kidney cells, mean, single experiments not given): 62.4%
Survival rate (%) (HEK 293 (kidney); Kidney (HEK293 normal cells), summary table): 62.44%
Mean survival rate (%) ([9]; BEAS-2B normal lung epithelial cells, mean of 4 experiments): 72.5%
survival rate 0510-10 min [9, 11]: 59.5%
survival rate 0512-10 min [9, 11]: 76.3%
survival rate 0515-10 min [9, 11]: 74.7%
survival rate 0517-10 min [9, 11]: 79.6%
Survival rate (%) ([9]; Lung epithelial cells (BEAS-2B normal cells), summary table): 72.50%
Survival rate (%) (Lung cancer): 36.87%
Survival rate (%) (Bladder cancer): 67.2%
Survival rate (%) (Breast cancer): 48.57%
Survival rate (%) (Gastric cancer): 41.6%
Survival rate (%) (Liver cancer): 40.95%
Increased tumor volume, Mean [10, 12]: 0 mm^3
Volume, Mean [10, 12]: 0 mm^3
Increased tumor volume [10, 12]: 0 mm^3
L (longest diameter of the tumor) [10, 12]: 0 mm
Volume [10, 12]: 0 mm^3
W (shortest diameter of the tumor) [10, 12]: 0 mm
Weight [10, 12]: 20 g
Weight ([10]; High dosage (200 mg/kg/day), Fifth measurement, hydrochloride): 21 g
Increased tumor volume, Mean [10, 13]: 78.5 mm^3
Volume, Mean [10, 13]: 78.5 mm^3
Weight [10, 13]: 20 g
L (longest diameter of the tumor) [10, 14]: 6 mm and 8 mm and 7 mm
W (shortest diameter of the tumor) [10, 14]: 4 mm and 5 mm
Weight [10, 14]: 19 g and 18.5 g
Increased tumor volume, Mean [10, 15]: −13.3333 mm^3
Volume, Mean [10, 15]: 0 mm^3
L (longest diameter of the tumor) [10, 15]: 0 mm
Volume [10, 15]: 0 mm^3
W (shortest diameter of the tumor) [10, 15]: 0 mm
Weight [10, 15]: 20 g
Weight ([10]; High dosage (200 mg/kg/day), Fourth measurement, hydrochloride): 21 g
Increased tumor volume, Mean [10, 16]: −25.8333 mm^3
Volume, Mean [10, 16]: 52.67 mm^3
Weight [10, 16]: 20 g
L (longest diameter of the tumor) [10, 17]: 6 mm and 5 mm and 7 mm
W (shortest diameter of the tumor) [10, 17]: 4 mm and 3 mm and 5 mm
Weight [10, 17]: 23 g
Increased tumor volume, Mean [10, 18]: −39.3333 mm^3
Volume, Mean [10, 18]: 13.33 mm^3
Weight ([10]; High dosage (200 mg/kg/day), Third measurement, hydrochloride): 19 g and 18.5 g
Increased tumor volume, Mean [10, 19]: −8.333 mm^3
Volume, Mean [10, 19]: 63.33 mm^3
Weight [10, 19]: 20 g
L (longest diameter of the tumor) [10, 20]: 6 mm and 4 mm
W (shortest diameter of the tumor) [10, 20]: 6 mm and 5 mm and 4 mm
Weight [10, 20]: 22 g
Increased tumor volume, Mean [10, 21]: 113.1667 mm^3
Volume, Mean [10, 21]: 113.1667 mm^3
Increased tumor volume [10, 22]: 87.5 mm^3 and 144 mm^3 and 108 mm^3
L (longest diameter of the tumor) [10, 22]: 7 mm and 8 mm and 6 mm
Volume [10, 22]: 87.5 mm^3 and 144 mm^3 and 108 mm^3
W (shortest diameter of the tumor) [10, 22]: 5 mm and 6 mm
Weight [10, 22]: 19 g and 18 g
Increased tumor volume, Mean [10, 23]: −18.1667 mm^3
Volume, Mean [10, 23]: 71.67 mm^3
Weight [10, 23]: 20 g
L (longest diameter of the tumor) [10, 24]: 6 mm and 4 mm
W (shortest diameter of the tumor) [10, 24]: 6 mm and 4 mm and 5 mm
Weight [10, 24]: 22 g
Increased tumor volume, Mean [10, 25]: −4.167 mm^3
Volume, Mean [10, 25]: 109 mm^3
Weight [10, 25]: 20 g
L (longest diameter of the tumor) [10, 26]: 6 mm and 7 mm
Volume [10, 26]: 75 mm^3 and 126 mm^3
W (shortest diameter of the tumor) [10, 26]: 5 mm and 6 mm
Weight [10, 26]: 19 g and 21 g
Increased tumor volume, Mean [10, 27]: −19.1667 mm^3
Volume, Mean [10, 27]: 89.83 mm^3
L (longest diameter of the tumor) [10, 27]: 7 mm
W (shortest diameter of the tumor) [10, 28]: 6 mm and 4 mm and 5 mm
Weight [10, 28]: 20.5 g and 23.5 g and 19 g
inhibitory effect against the tumors ([10]; both low dosage and high dosage, FIG. 2): great inhibitory effect
weight loss during the experiments ([10]; each group of mice, high or low dosage): no obvious weight loss
health condition / death during the treatment ([10]; either high or low dosage): not die during the treatment
effect on tumor volume, high versus low dosage ([10]; high dosage, FIG. 3): better effect
increase of tumor volume ([10]; low dosage and high dosage, FIG. 3): effectively inhibit the increase of tumor volume
inhibitory effect against various cancers (various cancer cells): significant inhibitory effect

From patent publication US10045962B2 (priority 2014, dated 2018)
